The IC50 is the concentration that inhibits the measured activity by half. High values mean lower potency, low ones higher potency.

Structures are written as SMILES.

Chain of human β-Secretase (P56817 22-460): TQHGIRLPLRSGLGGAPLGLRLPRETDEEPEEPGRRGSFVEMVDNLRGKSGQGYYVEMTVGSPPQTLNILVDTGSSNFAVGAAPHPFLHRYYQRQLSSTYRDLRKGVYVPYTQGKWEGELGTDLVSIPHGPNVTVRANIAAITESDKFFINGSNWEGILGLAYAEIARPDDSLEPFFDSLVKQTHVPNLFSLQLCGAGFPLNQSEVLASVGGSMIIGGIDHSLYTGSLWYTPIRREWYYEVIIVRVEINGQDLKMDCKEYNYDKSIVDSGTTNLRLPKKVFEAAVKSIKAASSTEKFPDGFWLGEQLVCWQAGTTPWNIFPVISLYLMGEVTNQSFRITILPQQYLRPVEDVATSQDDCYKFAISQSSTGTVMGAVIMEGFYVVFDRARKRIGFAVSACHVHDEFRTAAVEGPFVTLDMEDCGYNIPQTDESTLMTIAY

In this assay the target is human β-Secretase (Homo sapiens (Human), UniProt P56817). The experiment in a line: TR-FRET assay. In kind it is biochemical. The following applies: sBACE-Fc, substrate (Europium)CEVNLDAEFK(Qsy7) 100 nM, pH4.5, 15 minutes at r.t. On the procedure:
The β-secretase enzyme used in the TR-FRET is prepared as follows: The cDNA for the soluble part of the human β-Secretase (AA 1-AA 460) was cloned using the ASP2-Fc10-1-IRES-GFP-neoK mammalian expression vector. The gene was fused to the Fc domain of IgG1 (affinity tag) and stably cloned into HEK 293 cells.
The robotic systems Biomek FX and Velocity 11 were used for all liquid handling and the enzyme and substrate solutions were kept on ice until they were placed in the robotic system. Enzyme (9 μl) was added to the plate then 1 μl of compound in dimethylsulphoxide was added, mixed and pre-incubated for 10 minutes. Substrate (10 μl) was then added, mixed and the reaction proceeded for 15 minutes at r.t. The reaction was stopped with the addition of Stop solution (7 μl, NaAcetate, pH 9). […] The dimethylsulphoxide control, instead of test compound, defined the 100% activity level and 0% activity was defined by wells lacking enzyme (replaced with reaction buffer).
A general note: In TR-FRET formats the signal depends on donor and acceptor labels being close together.
Compound `CC1=NC2(N=C1N)c1cc(Br)ccc1CC21CCC(C(F)F)CC1` (centres unmarked) [Example 128, 6′-Bromo-4-(difluoromethyl)-5″-methyl-3′H-dispiro[cyclohexane-1,2′-indene-1′,2″-imidazol]-4″-amine] returned an IC50 of 2610 nM.

`CC1=NC2(CCOc3ccc(NC(=O)c4ccc(C)s4)cc32)N=C1N` (centres unmarked) [Example 13f, N-(4′-Amino-5′-methylspiro[chroman-4,2′-imidazole]-6-yl)-5-methylthiophene-2-carboxamide] had an IC50 of 6460 nM.

In turn, `CC1=NC2(CCOc3ccc(-c4cc(C)ccc4F)cc32)N=C1N` (centres unmarked) [Example 11, 6-(2-Fluoro-5-methylphenyl)-5′-methylspiro[chroman-4,2′-imidazol]-4′-amine] registered an IC50 of 1980 nM.

For `CC1=NC2(CC(C3CCCOC3)Oc3ccc(Br)cc32)N=C1N` (single isomer, unassigned) [Example 47 Isomer 8, 6-Bromo-5′-methyl-2-(tetrahydro-2H-pyran-3-yl)spiro[chromane-4,2′-imidazole]-4′-amine], 8100 nM corresponded to half-maximal inhibition (IC50).

Compound `CC1=NC2(CCOc3ccc(-c4cc(Cl)cc(Cl)c4)cc32)N=C1N` (centres unmarked) [Example 1, 6-(3,5-Dichlorophenyl)-5′-methylspiro[chroman-4,2′-imidazol]-4′-amine] came in with an IC50 of 157 nM. Against the preceding compound, the IC50 is about 52-fold lower.

Compound `CCO[C@H]1CC[C@]2(CC1)Cc1ccc(-c3cc(C#N)cc(C(F)F)c3)cc1C21N=C(C)C(N)=N1` (some centres unmarked) [Example 134, 3-[(1r,4r)-4″-Amino-4-ethoxy-5″-methyl-3′H-dispiro[cyclohexane-1,2′-indene-1′,2″-imidazol]-6′-yl]-5-(difluoromethyl)benzonitrile] yielded an IC50 of 28 nM. This IC50 is about 5.6-fold lower than that of the compound before.

Regarding `CC1=NC2(CC(C3CCCOC3)Oc3ccc(Br)cc32)N=C1N` (single isomer, unassigned) [Example 47 Isomer 7, 6-Bromo-5′-methyl-2-(tetrahydro-2H-pyran-3-yl)spiro[chromane-4,2′-imidazole]-4′-amine], the “IC50 in TR-FRET assay” value is “inactive”.

For `CC1=NC2(CC(C3CCCOC3)Oc3ccc(Br)cc32)N=C1N` (single isomer, unassigned) [Example 47 Isomer 3, 6-Bromo-5′-methyl-2-(tetrahydro-2H-pyran-3-yl)spiro[chromane-4,2′-imidazole]-4′-amine], the “IC50 in TR-FRET assay” value is “inactive”.

Take `CC1=NC2(CC(C3CCOC(C)(C)C3)Oc3ccc(Br)cc32)N=C1N` (mixture of isomers) [Example 49 Isomeric mixture 1, 6-Bromo-2-(2,2-dimethyltetrahydro-2H-pyran-4-yl)-5′-methyl-spiro[chromane-4,2′-imidazole]-4′-amine]: the IC50 was 10 nM.

`COCc1cc(F)cc(-c2ccc3c(c2)C2(N=C(C)C(N)=N2)[C@]2(CC[C@H](OC)CC2)C3)c1` (some centres unmarked) [Example 81, (1r,4r)-6′-[3-Fluoro-5-(methoxymethyl)phenyl]-4-methoxy-5″-methyl-3′H-dispiro[cyclohexane-1,2′-indene-1′,2″-imidazol]-4″-amine] showed a 50% inhibitory concentration (IC50) of 23 nM. This IC50 lies about 2.3-fold higher than the previous one.

As to `CC1=NC2(CCOc3ccc(NC(=O)c4ccc(Cl)cn4)cc32)N=C1N` (centres unmarked) [Example 13a, N-(4′-Amino-5′-methylspiro[chroman-4,2′-imidazole]-6-yl)-5-chloropicolinamide], inhibition was half-maximal at 1300 nM (IC50).

Consider `CC1=NC2(CC(C3CCCOC3)Oc3ccc(Br)cc32)N=C1N` (single isomer, unassigned) [Example 47 Isomer 1, 6-Bromo-5′-methyl-2-(tetrahydro-2H-pyran-3-yl)spiro[chromane-4,2′-imidazole]-4′-amine], for which the “IC50 in TR-FRET assay” value was “inactive”.

The compound `CC1=NC2(N=C1N)c1cc(C#CC(C)(C)C)ccc1CC21CCC1` (centres unmarked) [Example 59, 6′-(3,3-Dimethylbut-1-yn-1-yl)-5″-methyl-3′H-dispiro[cyclobutane-1,2′-indene-1′,2″-imidazol]-4″-amine] had a concentration for half-maximal inhibition (IC50) of 2610 nM.

`CC1=NC2(N=C1N)c1cc(Br)ccc1CC21CCC1` (centres unmarked) [Example 54, 6′-Bromo-5″-methyl-3′H-dispiro[cyclobutane-1,2′-indene-1′,2″-imidazol]-4″-amine] displayed a 50% inhibitory concentration (IC50) of 6610 nM.
